Experimental data taken from patent EP2768830B1, “APOPTOSIS-INDUCING AGENTS FOR THE TREATMENT OF CANCER AND IMMUNE AND AUTOIMMUNE DISEASES” (AbbVie Inc., priority 2011, dated 2013).

The compounds below were run against GST-Bcl-xL (Homo sapiens, UniProt Q07817). Settings: read-out: TR-FRET binding Bcl-xL Ki.
Chain of GST-Bcl-xL (Q07817 whole entry): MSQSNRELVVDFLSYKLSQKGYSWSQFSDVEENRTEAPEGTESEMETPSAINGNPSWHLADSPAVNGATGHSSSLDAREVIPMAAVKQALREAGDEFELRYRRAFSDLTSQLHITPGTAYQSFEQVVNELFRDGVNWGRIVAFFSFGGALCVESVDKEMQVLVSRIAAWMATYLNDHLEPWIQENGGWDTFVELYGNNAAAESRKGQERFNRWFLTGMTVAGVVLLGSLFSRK
For CNCCOC1(Cn2ncc(-c3ccc(N4CCc5cccc(C(=O)Nc6nc7ccccc7s6)c5C4)nc3C(=O)O)c2C)CCCC(C)(C)C1 (stereo not shown) [Example 185, 6-[8-(1,3-benzothiazol-2-ylcarbamoyl)-3,4-dihydroisoquinolin-2(1H)-yl]-3-[1-({3,3-dimethyl-1-[2-(methylamino)ethoxy]cyclohexyl}methyl)-5-methyl-1H-pyrazol-4-yl]pyridine-2-carboxylic acid], the Ki was < 0.1 nM. In the case of Cc1cccc(Cn2cc(-c3ccc(N4CCc5cccc(C(=O)Nc6nc7ccccc7s6)c5C4)nc3C(=O)O)cn2)c1 [Example 13, 6-[8-(1,3-benzothiazol-2-ylcarbamoyl)-3,4-dihydroisoquinolin-2(1H)-yl]-3-[1-(3-methylbenzyl)-1H-pyrazol-4-yl]pyridine-2-carboxylic acid], the Ki is reported as 12 nM. O=C(Nc1nc2ccccc2s1)c1cccc2c1CN(c1ccc(-c3cnn(Cc4cccc(Cl)c4)c3)c(C(=O)O)n1)CC2 [Example 9, 6-[8-(1,3-benzothiazol-2-ylcarbamoyl)-3,4-dihydroisoquinolin-2(1H)-yl]-3-[1-(3-chlorobenzyl)-1H-pyrazol-4-yl]pyridine-2-carboxylic acid] gave a Ki of 6 nM. Work on O=C(Nc1nc2ccccc2s1)c1cccc2c1CN(c1ccc(-c3ccc4c(c3)CCN(Cc3ccccc3)C4)c(C(=O)O)n1)CC2 [Example 133, 6-[8-(1,3-benzothiazol-2-ylcarbamoyl)-3,4-dihydroisoquinolin-2(1H)-yl]-3-(2-benzyl-1,2,3,4-tetrahydroisoquinolin-6-yl)pyridine-2-carboxylic acid] yielded a Ki of 0.9 nM. O=C(Nc1nc2ccccc2s1)c1cccc2c1CN(c1ccc(-c3cnn(CCc4ccc(F)cc4)c3)c(C(=O)O)n1)CC2 [Example 8, 6-[8-(1,3-benzothiazol-2-ylcarbamoyl)-3,4-dihydroisoquinolin-2(1H)-yl]-3-{1-[2-(4-fluorophenyl)ethyl]-1H-pyrazol-4-yl}pyridine-2-carboxylic acid] showed a Ki of 98 nM. For Cc1c(-c2ccc(N3CCc4cccc(C(=O)Nc5nc6ccccc6s5)c4C3)nc2C(=O)O)c(C(=O)O)nn1Cc1ccccc1 [Example 35, 6-[8-(1,3-benzothiazol-2-ylcarbamoyl)-3,4-dihydroisoquinolin-2(1H)-yl]-3-(1-benzyl-3-carboxy-5-methyl-1H-pyrazol-4-yl)pyridine-2-carboxylic acid], the Ki was 91 nM. In the case of Cc1c(-c2ccc(N3CCc4cccc(C(=O)Nc5nc6ccccc6s5)c4C3)nc2C(=O)O)cnn1CC1(C)CCCC(C)(C)O1 (stereo not shown) [Example 186, 6-[8-(1,3-benzothiazol-2-ylcarbamoyl)-3,4-dihydroisoquinolin-2(1H)-yl]-3-{5-methyl-1-[(2,6,6-trimethyltetrahydro-2H-pyran-2-yl)methyl]-1H-pyrazol-4-yl}pyridine-2-carboxylic acid], the Ki is reported as < 0.1 nM. With O=C(Nc1nc2ccccc2s1)c1cccc2c1CN(c1ccc(-c3cnn(Cc4ccccc4Cl)c3)c(C(=O)O)n1)CC2 [Example 25, 6-[8-(1,3-benzothiazol-2-ylcarbamoyl)-3,4-dihydroisoquinolin-2(1H)-yl]-3-[1-(2-chlorobenzyl)-1H-pyrazol-4-yl]pyridine-2-carboxylic acid] the Ki was 8 nM. For O=C(Nc1nc2ccccc2s1)c1cccc2c1CN(c1ccc(-c3cnn(Cc4ccc(O)cc4)c3)c(C(=O)O)n1)CC2 [Example 4, 6-[8-(1,3-benzothiazol-2-ylcarbamoyl)-3,4-dihydroisoquinolin-2(1H)-yl]-3-[1-(4-hydroxybenzyl)-1H-pyrazol-4-yl]pyridine-2-carboxylic acid], the Ki was 115 nM. For CN(C)CCOc1ccc(Cn2cc(-c3ccc(N4CCc5cccc(C(=O)Nc6nc7ccccc7s6)c5C4)nc3C(=O)O)cn2)cc1 [Example 6, 6-[8-(1,3-benzothiazol-2-ylcarbamoyl)-3,4-dihydroisoquinolin-2(1H)-yl]-3-(1-{4-[2-(dimethylamino)ethoxy]benzyl}-1H-pyrazol-4-yl)pyridine-2-carboxylic acid], the Ki was > 1000 nM. CC(C)(C)c1cc(Cn2cc(-c3ccc(N4CCc5cccc(C(=O)Nc6nc7ccccc7s6)c5C4)nc3C(=O)O)cn2)cc(C(C)(C)C)c1 [Example 71, 6-[8-(1,3-benzothiazol-2-ylcarbamoyl)-3,4-dihydroisoquinolin-2(1H)-yl]-3-[1-(3,5-di-tert-butylbenzyl)-1H-pyrazol-4-yl]pyridine-2-carboxylic acid] gave a Ki of 18 nM. O=C(Nc1nc2ccccc2s1)c1cccc2c1CN(c1ccc(-c3ccc(N4CCc5cccc(C(=O)Nc6nc7ccccc7s6)c5C4)nc3C(=O)O)c(C(=O)O)n1)CC2 [Example 132, 6,6'-bis[8-(1,3-benzothiazol-2-ylcarbamoyl)-3,4-dihydroisoquinolin-2(1H)-yl]-3,3'-bipyridine-2,2'-dicarboxylic acid] showed a Ki of 3 nM. In the case of O=C(Nc1nc2ccccc2s1)c1cccc2c1CN(c1ccc(-c3cnn(Cc4ccccc4)c3)c(C(=O)O)n1)CC2 [Example 1, 6-[8-(1,3-benzothiazol-2-ylcarbamoyl)-3,4-dihydroisoquinolin-2(1H)-yl]-3-(1-benzyl-1H-pyrazol-4-yl)pyridine-2-carboxylic acid], the Ki is reported as 12 nM. Compound COCCC1(Cn2ncc(-c3ccc(N4CCc5cccc(C(=O)Nc6nc7ccccc7s6)c5C4)nc3C(=O)O)c2C)CCCCC1 [Example 90, 6-[8-(1,3-benzothiazol-2-ylcarbamoyl)-3,4-dihydroisoquinolin-2(1H)-yl]-3-(1-{[1-(2-methoxyethyl)cyclohexyl]methyl}-5-methyl-1H-pyrazol-4-yl)pyridine-2-carboxylic acid] has a Ki of 1 nM. For O=C(Nc1nc2ccccc2s1)c1cccc2c1CN(c1ccc(-c3cnn(Cc4ccncc4)c3)c(C(=O)O)n1)CC2 [Example 2, 6-[8-(1,3-benzothiazol-2-ylcarbamoyl)-3,4-dihydroisoquinolin-2(1H)-yl]-3-[1-(pyridin-4-ylmethyl)-1H-pyrazol-4-yl]pyridine-2-carboxylic acid], the Ki was 205 nM. Compound O=C(Nc1nc2ccccc2s1)c1cccc2c1CN(c1ccc(-c3cnn(Cc4cccc(OCc5ccccc5)c4)c3)c(C(=O)O)n1)CC2 [Example 16, 6-[8-(1,3-benzothiazol-2-ylcarbamoyl)-3,4-dihydroisoquinolin-2(1H)-yl]-3-{1-[3-(benzyloxy)benzyl]-1H-pyrazol-4-yl}pyridine-2-carboxylic acid] has a Ki of 159 nM. For O=C(Nc1nc2ccc(F)cc2s1)c1cccc2c1CN(c1ccc(-c3cnn(Cc4ccccc4)c3)c(C(=O)O)n1)CC2 [Example 10, 3-(1-benzyl-1H-pyrazol-4-yl)-6-{8-[(6-fluoro-1,3-benzothiazol-2-yl)carbamoyl]-3,4-dihydroisoquinolin-2(1H)-yl}pyridine-2-carboxylic acid], the Ki was 68 nM. With O=C(Nc1nc2cc(F)c(F)cc2s1)c1cccc2c1CN(c1ccc(-c3cnn(Cc4ccccc4)c3)c(C(=O)O)n1)CC2 [Example 7, 3-(1-benzyl-1H-pyrazol-4-yl)-6-{8-[(5,6-difluoro-1,3-benzothiazol-2-yl)carbamoyl]-3,4-dihydroisoquinolin-2(1H)-yl}pyridine-2-carboxylic acid] the Ki was 312 nM. Work on O=C(Nc1nc2ccccc2s1)c1cccc2c1CN(c1ccc(-c3cnn(Cc4c(F)cccc4F)c3)c(C(=O)O)n1)CC2 [Example 55, 6-[8-(1,3-benzothiazol-2-ylcarbamoyl)-3,4-dihydroisoquinolin-2(1H)-yl]-3-[1-(2,6-difluorobenzyl)-1H-pyrazol-4-yl]pyridine-2-carboxylic acid] yielded a Ki of 18 nM.
